Series [1] is described as follows: In vivo pharmacokinetic studies (plasma concentration of prototype drug by LC/MS/MS after gavage). Conditions: ICR male mice fasted overnight, 1 mg/mL suspension in 5% DMSO+30% HP-β-CD, plasma 0-24 h. The protocol: A proper amount of compound was weighed and 1 mg/mL suspension was prepared using the weighed compound and 5% DMSO+30% HP-β-CD. After ICR male mice fasted overnight, they were administered by gavage and their blood was collected from the jugular venous plexus at different time points of 0, 5 min, 0.25 h, 0.5 h, 1 h, 2 h, 4 h, 8 h, and 24 h. After anticoagulation with EDTA-K2, plasma was separated by centrifugation, and the concentrations of prototype drug in plasma was determined by LC/MS/MS.

A short description of series [2]: Stability study (lighting, high-temperature, high-humidity, acceleration, intermediate conditions, long-term tests). It is filed as physicochemical. As to conditions: light 4,500 lx; 60° C.; 25° C. RH 92.5% and 72.5%; 40° C./75% RH; 30° C./65% RH; 25° C./60% RH. The source says:
A proper amount of compound was weighed and placed in a suitable white transparent open container (such as a weighing bottle or petri dish), the container was placed in a lighting stability test chamber for drugs at an illumination of 4,500 lx±500 lx. The samples were taken for testing 5, 10, and 30 days after the placement.
A proper amount of compound was weighed and placed in a suitable open container (such as a weighing bottle or culture dish), the container was placed in an electric heated air-drying oven at 60° C. The samples were taken for testing 5, 10, and 30 days after the placement.
A proper amount of compound was weighed and placed in suitable open container (such as a weighing bottle or petri dish), the container was placed in a KNO3 saturated solution desiccator at a temperature of 25° C.±2° C. and a relative humidity of 92.5% and 72.5% respectively. The samples were taken for testing 5, 10, and 30 days after the placement.
After packaging an appropriate amount of the compound with inner packaging (pharmaceutical low-density polyethylene film, bag) and outer packaging (polyester/aluminum/polyethylene pharmaceutical composite film, bag), the compound was tested at a temperature of 40° C.±2° C. and a relative humidity of 75%±5%. […]

As to `C[C@@H](COCc1cc2n(n1)CCN(c1ncc(C(F)(F)F)cn1)C2)Nc1cn[nH]c(=O)c1C(F)(F)F` [crystalline form A, (S)-4-(Trifluoromethyl)-5-((1-((5-(5-(trifluoromethyl)pyrimidin-2-yl)-4,5,6,7-tetrahydropyrazolo[1,5-a]pyrazin-2-yl)methoxy)propan-2-yl)amino)pyridazin-3(2H)-one], the pharmacokinetic properties entry in series [1] is recorded as “good pharmacokinetic properties”. In addition, in series [2], the “physical and chemical stability” value is “good physical and chemical stability”.

Source of the values: patent publication US20250270223A1, “CRYSTAL OF SUBSTITUTED PIPERAZINE DERIVATIVE AND PREPARATION METHOD THEREFOR” (Kangbaida (Sichuan) Biotechnology Co., Ltd, priority 2022, published 2025).
